From the supplement of paper PMC9780213

How the values were obtained:
Conditions in all cases: treatment time: 24 h
U2OS-mOrange2-Peroxisome = assay: cell count relative to DMSO control (panel B, lysosome/peroxisome/lipid stain) (fraction of control); higher = more cells (less toxicity)
Method: (§1)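 U2OS-derived cells in 384-well plates were treated for 24 h with a 7-point 2-fold dilution series (top dose 20 µM for most compounds; final max DMSO 1%), then fixed, stained in four marker panels and imaged on a Cellomics ArrayScan. Cell count per treatment (three replicate plates merged) is given as a fraction of DMSO control. Panel A used parental U2OS, panel B U2OS-mOrange2-Peroxisome, panel C1 U2OS-LMNB1-TUBA1B-ACTB (DRAQ5 nuclei).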

U2OS-LMNB1-TUBA1B-ACTB = assay: cell count relative to DMSO control (panel C1, DRAQ5/ER stain) (fraction of control); higher = more cells (less toxicity)
Method: as §1

U2OS = assay: cell count relative to DMSO control (panel A, nuclei/RNA/PMG/mitochondria stain) (fraction of control); higher = more cells (less toxicity)
Method: as §1

Row | Compound | cell count (U2OS-mOrange2-Peroxisome; 0.3125 µM) | cell count (U2OS-mOrange2-Peroxisome; 0.625 µM) | cell count (U2OS-mOrange2-Peroxisome; 1.25 µM) | cell count (U2OS-mOrange2-Peroxisome; 2.5 µM) | cell count (U2OS-mOrange2-Peroxisome; 5 µM) | cell count (U2OS-mOrange2-Peroxisome; 10 µM) | cell count (U2OS-mOrange2-Peroxisome; 20 µM) | cell count (U2OS-LMNB1-TUBA1B-ACTB; 0.3125 µM) | cell count (U2OS-LMNB1-TUBA1B-ACTB; 0.625 µM) | cell count (U2OS-LMNB1-TUBA1B-ACTB; 1.25 µM) | cell count (U2OS-LMNB1-TUBA1B-ACTB; 2.5 µM) | cell count (U2OS-LMNB1-TUBA1B-ACTB; 5 µM) | cell count (U2OS-LMNB1-TUBA1B-ACTB; 10 µM) | cell count (U2OS-LMNB1-TUBA1B-ACTB; 20 µM) | cell count (U2OS; 0.3125 µM) | cell count (U2OS; 0.625 µM) | cell count (U2OS; 1.25 µM) | cell count (U2OS; 2.5 µM) | cell count (U2OS; 5 µM) | cell count (U2OS; 10 µM) | cell count (U2OS; 20 µM) | cell count (U2OS-mOrange2-Peroxisome; 0.15625 µM) | cell count (U2OS-LMNB1-TUBA1B-ACTB; 0.15625 µM) | cell count (U2OS; 0.15625 µM) | cell count (U2OS-mOrange2-Peroxisome; 0.07812 µM) | cell count (U2OS-LMNB1-TUBA1B-ACTB; 0.07812 µM) | cell count (U2OS; 0.07812 µM)
1 | COC(=O)Nc1nc2ccc(C(=O)c3cccs3)cc2[nH]1 [nocodazole] | 0.837 | 0.656 | 0.775 | 0.628 | 0.411 | 0.425 | 0.381 | 1.12 | 0.993 | 1.01 | 0.999 | 0.737 | 0.414 | 0.369 | 1.06 | 0.962 | 1.03 | 0.792 | 0.692 | 0.317 | 0.196 | – | – | – | – | – | –
2 | CC[C@H]1/C=C/C=C/C[C@@H](C)[C@H](O)[C@@](C)(O)C(=O)[C@@H](C)[C@H](O)[C@@H](C)C(=O)[C@@H](C)[C@H](O)[C@@H](C)/C=C/C(=O)O[C@@H]2[C@H](C)[C@H](CC1)O[C@]1(CC[C@H](C)[C@H](C[C@@H](C)O)O1)[C@H]2C [oligomycin-a] | 0.906 | 0.944 | 0.895 | 0.858 | 1.21 | 1.09 | – | 1.03 | 1.07 | 1 | 1.03 | 1.09 | 1.05 | – | 0.986 | 0.995 | 1.04 | 0.938 | 0.99 | 0.925 | – | 0.52 | 0.621 | 0.555 | – | – | –
3 | CC(=O)O[C@H]1C(=O)[C@@]2(C)[C@H]([C@H](OC(=O)c3ccccc3)[C@]3(O)C[C@H](OC(=O)[C@H](O)[C@@H](NC(=O)c4ccccc4)c4ccccc4)C(C)=C1C3(C)C)[C@]1(OC(C)=O)CO[C@@H]1C[C@@H]2O [paclitaxel] | 0.878 | 0.695 | 0.709 | 0.787 | 0.849 | 0.843 | 1.14 | 1.04 | 1.09 | 1.08 | 1.05 | 0.93 | 1.14 | 0.992 | 0.956 | 1.05 | 0.97 | 0.928 | 1.04 | 1 | 1 | – | – | – | – | – | –
4 | CCCCCCCCCCCCCCCCCCOP(=O)([O-])OC1CC[N+](C)(C)CC1 [perifosine] | 0.846 | 0.987 | 0.869 | 0.928 | 1.12 | 0.704 | 0.364 | 1.11 | 1.15 | 1.09 | 0.996 | 1.01 | 0.753 | 0.363 | 0.989 | 1.07 | 1.02 | 0.99 | 0.979 | 0.592 | 0.285 | – | – | – | – | – | –
5 | COc1cc([C@@H]2c3cc4c(cc3[C@H](O)[C@H]3COC(=O)[C@@H]23)OCO4)cc(OC)c1OC [picropodophyllin] | 0.803 | 1.07 | 0.951 | 1.42 | 1.24 | 1.15 | – | 0.954 | 1.04 | 1.03 | 1.02 | 0.926 | 0.738 | – | 0.88 | 0.899 | 0.978 | 0.94 | 0.929 | 0.701 | – | 0.97 | 0.924 | 0.97 | – | – | –
6 | NS(=O)(=O)C#Cc1ccccc1 [pifithrin-mu] | 1.02 | 0.981 | 0.941 | 1.08 | 1.02 | 1.13 | – | 1.09 | 1.06 | 1.08 | 1.07 | 1.1 | 0.97 | – | 1.07 | 1.11 | 1.05 | 0.983 | 0.953 | 1.05 | – | 1.01 | 1.14 | 1.06 | – | – | –
7 | COc1ccc(C[C@H](N)C(=O)N[C@H]2[C@@H](O)[C@H](n3cnc4c(N(C)C)ncnc43)O[C@@H]2CO)cc1 [puromycin] | 1.07 | 1.09 | 1.11 | 1.29 | 1.52 | – | – | 1.11 | 1.13 | 0.957 | 1.02 | 1.02 | – | – | 1.03 | 1.06 | 0.995 | 1.03 | 0.957 | – | – | 0.924 | 0.997 | 1.05 | 1.01 | 1.1 | 1.06
8 | COc1ccc(C2CNC(=O)C2)cc1OC1CCCC1 (stereo unspecified) [rolipram] | 0.884 | 0.894 | 1 | 0.96 | 1.13 | 0.726 | 1 | 0.979 | 1.14 | 0.963 | 1.03 | 1.01 | 1.02 | 1.01 | 1.04 | 1.07 | 0.964 | 0.96 | 0.915 | 1 | 0.959 | – | – | – | – | – | –
9 | O=C(/C=C\n1cnc(-c2cc(C(F)(F)F)cc(C(F)(F)F)c2)n1)NNc1cnccn1 [selinexor] | 0.905 | 0.657 | 0.758 | 0.705 | 0.676 | 0.598 | 0.484 | 1.1 | 1.06 | 1.12 | 1.15 | 1.07 | 0.834 | 0.693 | 1.01 | 0.994 | 1.03 | 0.971 | 0.9 | 0.779 | 0.502 | – | – | – | – | – | –
10 | CO[C@H]1C[C@@H]2CC[C@@H](C)[C@@](O)(O2)C(=O)C(=O)N2CCCC[C@H]2C(=O)O[C@H]([C@H](C)C[C@@H]2CC[C@@H](O)[C@H](OC)C2)CC(=O)[C@H](C)/C=C(\C)[C@@H](O)[C@@H](OC)C(=O)[C@H](C)C[C@H](C)/C=C/C=C/C=C/1C [sirolimus] | 0.81 | 0.644 | 0.677 | 0.521 | 0.453 | 0.451 | 0.372 | 1.12 | 0.947 | 1.07 | 0.944 | 0.94 | 0.711 | 0.745 | 1.08 | 0.8 | 0.967 | 1.05 | 0.947 | 0.766 | 0.755 | – | – | – | – | – | –
11 | CC(NC(=O)c1ccccc1/N=C/c1c(O)ccc2ccccc12)c1ccccc1 (stereo unspecified) [sirtinol] | 0.607 | 0.507 | 0.491 | 0.365 | 0.37 | 0.373 | 0.339 | 0.886 | 0.842 | 0.727 | 0.552 | 0.338 | 0.357 | 0.367 | 0.858 | 0.782 | 0.659 | 0.462 | 0.195 | 0.192 | 0.17 | – | – | – | – | – | –
12 | C=CCNC1=C2C[C@@H](C)C[C@H](OC)[C@H](O)[C@@H](C)/C=C(\C)[C@H](OC(N)=O)[C@@H](OC)/C=C\C=C(/C)C(=O)NC(=CC1=O)C2=O [tanespimycin] | 0.767 | 0.7 | 0.405 | 0.144 | 0.148 | – | – | 1.06 | 0.956 | 0.938 | 0.501 | 0.0736 | – | – | 0.929 | 0.901 | 0.686 | 0.307 | 0.0406 | – | – | 0.803 | 1.03 | 0.976 | 1.48 | 1.06 | 1
13 | COc1ccc2cc1Oc1ccc(cc1)C[C@H]1c3cc(c(OC)cc3CCN1C)Oc1c(OC)c(OC)cc3c1[C@H](C2)N(C)CC3 [tetrandrine] | 0.838 | 0.86 | 0.958 | 0.976 | 0.895 | 0.827 | 0.488 | 1.04 | 1.06 | 1.06 | 1.05 | 0.976 | 0.796 | 0.639 | 0.949 | 1 | 1.01 | 0.97 | 0.905 | 0.781 | 0.631 | – | – | – | – | – | –
14 | Cc1c(Cl)cccc1Nc1ccccc1C(=O)O [tolfenamic-acid] | 0.753 | 0.959 | 0.883 | 0.953 | 0.933 | 1.01 | 1.22 | 1.01 | 1.1 | 1.11 | 1.07 | 0.998 | 1.12 | 1.03 | 0.992 | 1.06 | 1.03 | 1.1 | 1.04 | 1.03 | 0.963 | – | – | – | – | – | –
15 | CC(C=CC(=O)NO)=C[C@@H](C)C(=O)c1ccc(N(C)C)cc1 [trichostatin-a] | 0.582 | 0.501 | 0.516 | 0.585 | 0.605 | 0.228 | 0.0857 | 1.04 | 0.942 | 0.773 | 0.619 | 0.639 | 0.517 | 0.314 | 0.888 | 0.737 | 0.497 | 0.466 | 0.427 | 0.258 | 0.142 | – | – | – | – | – | –
16 | CC(=O)N[C@H]1[C@@H](O[C@@H]2O[C@H](CC(O)[C@H]3O[C@@H](n4ccc(=O)[nH]c4=O)[C@H](O)[C@@H]3O)[C@H](O)[C@H](O)[C@H]2NC(=O)/C=C/CC(C)C)O[C@H](CO)[C@@H](N)[C@@H]1O (stereo partly specified) [tunicamycin] | 0.558 | 0.528 | 0.587 | 0.448 | 0.517 | – | – | 0.555 | 0.626 | 0.596 | 0.552 | 0.491 | – | – | 0.663 | 0.582 | 0.61 | 0.535 | 0.535 | – | – | 0.477 | 0.611 | 0.654 | 0.498 | 0.934 | 0.979
